Experimental data taken from the METLIN SMRT retention time set (Domingo-Almenara et al. 2019).

Experiment: gradient 5% acetonitrile 3 min, to 50% in 2 min, to 85% in 15 min, held 3 min, 100 µL/min
Conditions: column: Zorbax Extend-C18 2.1 x 50 mm; eluents: water / acetonitrile, 0.1% formic acid
How it was run: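 Pure standards were analyzed in mixtures of ~100 molecules using HPLC coupled to a quadrupole time-of-flight mass spectrometer, in both positive and negative ionization mode. Separation used a Zorbax Extend-C18 column (2.1 × 50 mm, 1.8 μm) at 100 μL/min, with water and acetonitrile each containing 0.1% formic acid. Dead and dwell volumes were 40 μL and 900 μL, and data were collected over 3 months. Retention time was read from computationally picked adduct peaks, each inspected manually.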

SMILES | RP-LC retention time [s]
COc1ccc(-c2noc(CN3C(=O)COc4ccc(Cl)cc43)n2)cc1 | 1050
CC(NC(=O)c1ccc(-c2cncnc2)nc1)c1ccccc1 (configuration not stated) | 715
CCCS(=O)(=O)N1CC(=O)N(c2cccc(F)c2)C(C)(C(=O)NC2CCCCCC2)C1 (configuration not stated) | 956
COC(=O)c1ccc(CSc2nnc(NC(=O)C3(c4cccs4)CCCC3)s2)o1 | 978
Cc1noc([C@@H]2CC(F)(F)CN2C(=O)c2coc(C)n2)n1 | 694
O=C(Nc1ccc(F)cc1)Nc1cccn2ncnc12 | 763
O=S1(=O)CCC(Nc2ncnc3c2cnn3-c2ccc(Cl)c(Cl)c2)C1 (configuration not stated) | 903
CC(C)Nc1nc(=O)[nH]c2ccccc12 | 550
Cc1ccc2nc(-c3ccc(O)cc3)c(Nc3ccc(Cl)cc3)n2c1 | 671
Cn1nc(C(=O)NC2CCCN(c3cc(-c4ccc(Cl)cc4)[nH]n3)C2)c2ccccc21 (configuration not stated) | 935
Cc1cc(-c2nnc(-c3ccccc3)o2)c(C)n1CC(=O)NCc1ccc(Cl)cc1 | 982
C=CCNC(=O)c1ccc2nc(C)c(C)nc2c1 | 626
CC1CCN(C(=O)c2ccc(-c3ccsc3)nc2)CC1 | 876
Cc1noc(-c2cc(=O)n(CC(=O)Nc3cccc(C)c3C)c3ccccc23)n1 | 890
CC(C(=O)N1CCN(c2ccccn2)CC1)n1nc(-c2ccccc2)c2cc(Cl)ccc21 (configuration not stated) | 835
Cc1nnsc1C(=O)Nc1nnc(SCC(=O)Nc2ccc(F)c(Cl)c2)s1 | 813
CN1CCn2cc(S(=O)(=O)Nc3ccc(F)cc3Cl)cc2C1=O | 690
C=CCN(Cc1nc(-c2ccc(C)cc2)no1)C(=O)Nc1ccccc1OC | 1130
COc1ccc(N2CCN(c3cc(SCC(=O)Nc4ccc5c(c4)OCO5)ncn3)CC2)cc1 | 900
O=C(O)CSc1nnc(COc2cccc3cccnc23)n1-c1ccccc1 | 577
COc1cc(Nc2ncc(C(=O)O)c(C(C)C)n2)cc(OC)c1 | 892
CC(C)CN1CCN(C(=O)C2CCCN(c3cnc4nccnc4c3)C2)CC1 (configuration not stated) | 564
CCC1CCCCN1C(=O)c1cnc2nc(C)ccc2c1Nc1cc(C)ccc1C (configuration not stated) | 737

SMILES | RP-LC retention time [s]
Cc1ccc(NC(=O)Cn2cccc2-c2nnc(C3CC3)o2)c(Cl)c1 | 930
CCOC(=O)CNC(=O)N1CCCC1c1ccc(C)cc1 (configuration not stated) | 801
CC(C)Cc1nnc(NC(=O)C2CCN(C(=O)c3ccccc3)CC2)s1 | 750
COc1ccc(-c2nc3ccc(C)cn3c2Nc2ccc(C)cc2)cc1 | 778
O=C(C(=O)N1CCN(C2CCCCC2)CC1)c1ccc[nH]1 | 588
O=C(NCC1CCN(C(=O)Oc2ccccc2)CC1)Nc1ccc(C(F)(F)F)cc1 | 947
Cc1cc(S(=O)(=O)[C@H]2CS(=O)(=O)C[C@@H]2N2CCN(c3cccc(Cl)c3)CC2)ccc1F | 1090
CNCCC(Oc1ccccc1C)c1ccccc1 (configuration not stated) | 778
Cc1c(Cl)cccc1N1C(=O)CN(S(C)(=O)=O)CC1(C)C(=O)NC1CCCCC1 (configuration not stated) | 892
Cc1cc(C(=O)NCc2ccc(F)cc2)n(-c2ccccc2)n1 | 813
O=C(Cn1c(=O)n(-c2ccc(F)cc2)c2ncccc21)NCCN1CCCCCC1 | 625
COc1ccc(NC(=O)c2ccc3[nH]c4c(c3c2)CN(C(=O)C2CCC2)CC4)c(OC)c1 | 807
CN1C(=O)c2ccccc2Oc2ccc(C(=O)NCc3ccco3)cc21 | 788
COc1ccc(-n2c(=O)n(C)c(=O)c3cc(C(=O)Nc4ccc(C)cc4)cnc32)cc1 | 918
CC(C)CC(=O)Nc1nc(-c2ccc3c(c2)N(C)C(=O)C(C)O3)cs1 (configuration not stated) | 921
Cc1noc(C)c1CC(=O)N1CCc2ccccc2[C@H]1C | 732
Cc1ccc(-c2nnc(N3CCC(C(=O)N4CCC5(CC4)OCCO5)CC3)o2)cc1 | 755
CCc1ccc(CNC(=O)Cc2nnc(-c3cnccn3)o2)cc1 | 739
O=C(NCCn1c(-c2ccc(F)cc2)nc2cccnc21)c1ccc2c(c1)OCO2 | 697
S=C(NCc1ccc2c(c1)OCO2)N1CCN(c2ncnc3c2oc2ccccc23)CC1 | 875
Cc1cc2c(=O)n(CC(=O)Nc3ccc(F)c(F)c3)ccc2s1 | 826
O=C(Nc1c(-c2ccc(F)cc2)nc2ccccn12)c1cccc([N+](=O)[O-])c1 | 684
COCCn1ccc2nc(C)c(C(=O)NCc3ccc4c(c3)OCO4)cc2c1=O | 664

SMILES | RP-LC retention time [s]
Cc1cc(Cl)ccc1NS(=O)(=O)c1cc(-c2[nH]ncc2C(=O)N2CCCC2)oc1C | 772
Cc1cccc(-n2c(=O)c3c(cc(C)n3C)n(CC(=O)Nc3cccc(C#N)c3)c2=O)c1 | 846
O=C(NCc1ccc2c(c1)OCO2)C1CCCN(c2ccnc(-c3ccc(F)cc3)n2)C1 (configuration not stated) | 660
Cc1ccc(C)c(NC(=O)Nc2ccc(-c3cn4ccc(C)nc4n3)cc2)c1 | 690
CCn1nc(N2CCCC(NC(=O)Cn3c(=O)oc4ccccc43)C2)ccc1=O (configuration not stated) | 707
O=C(Cn1cc(-c2ccccc2)c2ncnc(N3CCOCC3)c21)NCC1CCCO1 (configuration not stated) | 644
CC(CCc1ccccc1)NC(=O)C1CCN(c2cc(Oc3ccccc3)ncn2)CC1 (configuration not stated) | 998
Cc1cnc(C2CCC2)n1C1CCN(C(=O)C2(c3ccccc3)CC2)CC1 | 663
Cc1nc(-c2cccs2)sc1C(=O)NCCn1nc(-n2ccnc2C)ccc1=O | 564
COCc1nncn1C1CCN(S(=O)(=O)c2ccc(C(F)(F)F)cc2)CC1 | 764
Nc1cc(C2CCN(C(=O)Nc3cccc(Cl)c3F)CC2)no1 | 676
CCCNc1nc(-c2ccc(OC)cc2)nc2ccccc12 | 734
Cc1cc(OCC(=O)NCc2ccccc2Cl)nc(N2CCCC2)n1 | 620
O=C(c1cnccn1)N1CC(c2nc(-c3cccs3)no2)C1 | 693
Cc1ccc(-n2cc3c(N4CCCC(C(=O)NCc5cccc(C(F)(F)F)c5)C4)ncnc3n2)cc1 (configuration not stated) | 772
CCSc1nc2ccc(NS(=O)(=O)c3ccccc3F)cc2s1 | 964
Cc1ccn2cc(-c3ccc(NC(=O)CCC4CCCCC4)cc3)nc2n1 | 761
CCN1CN=C(Nc2nc(C)c3cc(OC)ccc3n2)NC1 | 622
COc1ccc(S(=O)(=O)Nc2cc(-c3cn4ccc(C)cc4n3)ccc2C)cc1 | 662
CC(=O)Nc1c(C)noc1/C=C\c1ccc(S(=O)(=O)N2CCN(c3ccccn3)CC2)cc1 | 643
CC1CCN(c2ccc(-c3cccc(NC(=O)NCc4ccccc4)c3)nn2)CC1 | 747
